In patent US11161845B2, “Pyrrolopyridine-aniline compounds for treatment of dermal disorders” (Nflection Therapeutics, Inc., priority 2017, dated 2021):

Columns and labels:
[1] = Compound levels in neck/back skin (LCMS), in vivo mouse model; set-up: species or system mice; settings: for concentration at 1 h / concentration at 2 h: male, C57BL/6J, mouse, neck/back skin; for concentration at 1 h: 1 h after final application; for concentration at 2 h: 2 h after final application; for Compound Levels in Neck/Back Skin: pre-dose (16 h)
Method: Week 4 (Experiment end): Skin and blood were collected right before the last morning dose (N=3), 1 hour (N=3 mice), and 2 hours (N=3 mice) after final application; Blood draw: Plasma compound levels (LCMS); Skin biopsy: formalin fixed for histology and p-ERK staining, flash frozen for Western analysis and skin compound levels (LCMS)
Skin biopsy and GI tract sampling: Skin was wiped down with 100% ethanol and a 1 cm^2 biopsy was obtained from compound application site each mouse at the 25 day end of experiment (except as noted below). The skin was biopsied prior to final dose from 3 mice, 1 hour after last compound application from 3 mice, 2 hours after last compound application from 3 mice. Half of the specimen were immediately flash frozen for LCMS analysis and Western Blot Analysis. Half of the specimen was fixed for 24 hours in 10% formalin and then transferred to ethanol for immunohistochemistry. Gastrointestinal tract was also formalin fixed overnight then transferred to 70% ETOH for storage.
Compound level analysis: Liquid chromatography with mass spectrometry method (LCMS) was used to detect compound levels in the skin and plasma. Tissues were preprocessed prior to LCMS as follows. Tissues were minced and incubated with collagenase and then finally homogenized using the stainless steel beads prior to LCMS analysis. Calibration curves and a QC test were run with each assay.

A375 cells = assay: A375 (BRAF) GI50 cell-based assay (Cell Titer-Glo); settings: Homo sapiens, A-375; 72 hours; read-out: Assay 2: A375 (BRAF) GI50
Method: Alternatively, the following procedure can be used to measure cell-based activity. Test compounds were dissolved in DMSO in 10 mM stock. Cell Titer-Glo® 2.0 Luminescent cell viability assay reagent was purchased from Promega (Madison, Wis.). A375 and HCT116 cell lines were purchased from American Type Culture Collection (Manassas, Va.). For A375 cells, cell culture media was DMEM+10% FBS. For HCT116 cells, cell culture media was McCoy's 5A+10% FBS. All media were supplemented with 100 μg/mL of penicillin, and 100 μg/mL of streptomycin. Cultures were maintained at 37° C. in a humidified atmosphere of 5% CO2 and 95% air.
Test compounds were diluted in DMSO solution with 10-dose and 3-fold dilutions in a source plate starting at 10 mM. 25 nL of each test compound was delivered from the source plate to each well of the 384-well cell culture plates (T=Final) by Echo 550. 25 μL of culture medium containing 2000 of A375 or HCT116 cells was added to each of the wells in duplicates of the cell culture plates (T=0 and T=Final). 25 μL of Cell Titer Glo 2.0 reagent was added to each well of cell culture plate (T=0). The contents were mixed on an orbital shaker for 2 min and incubated at room temperature for 15 min to stabilize luminescent signal. Luminescence was recorded by Envision 2104 Multilabel Reader (PerkinElmer, Santa Clara, Calif.). The number of viable cells in culture was determined based on quantitation of the ATP present in each culture well. The cells in cell culture plate (T=Final) were incubated with the compounds at 37° C., 5% CO2 for 72 hours. 25 μL of Cell Titer Glo 2.0 reagent was added to each well. The contents were mixed on an orbital shaker for 2 min and incubated at room temperature for 15 min to stabilize luminescent signal. Luminescence was recorded by Envision 2104 Multilabel Reader (PerkinElmer, Santa Clara, Calif.). The number of viable cells in culture was determined based on quantitation of the ATP present in each culture well. The G150 curves were plotted using the GraphPad Prism 4 program based on a sigmoidal dose-response equation Y=Bottom+(Top−Bottom)/(1+10^((Log EC50−X)*HillSlope)). All parameters in the equation were calculated by GraphPad Prism 4 program. […] Accordingly, GI50 is the value of 10^X, where X was calculated by the Curve Fitting Equation when Y=50 using Excel.

Question: Which results are given for `Cn1c(Nc2ccc(I)cc2F)c(C(=O)NOCCO)c2cccnc21` [Example 2, 2-((2-Fluoro-4-iodophenyl)amino)—N-(2-hydroxyethoxy)-1-methyl-1H-pyrrolo[2,3-b]pyridine-3-carboxamide]?
Answer: concentration at 1 h ([1]; topical 0.1%): 14 µg/mL; concentration at 2 h ([1]; topical 0.1%): 4.88 µg/mL; concentration at 1 h ([1]; topical 0.5%): 289 µg/mL; concentration at 2 h ([1]; topical 0.5%): 81.6 µg/mL; concentration at 1 h ([1]; topical 1%): 683 µg/mL; concentration at 2 h ([1]; topical 1%): 378 µg/mL; Compound Levels in Neck/Back Skin ([1]; topical 0.1%): 5.62 µg/mL; Compound Levels in Neck/Back Skin ([1]; topical 0.5%): 49.17 µg/mL; Compound Levels in Neck/Back Skin ([1]; topical 1%): 14.73 µg/mL; GI50 (A375 cells): 63 nM
